Measurements published in article PMC12329412, “Study of the mass balance, biotransformation, and safety of [^14C]IBI351 in healthy Chinese subjects” (Journal of Biomedical Research, 2024).
Several values for one entry are separate records, joined by “and”; a condition that tells them apart may be missing. Equal values may be shown once. Marks after values point to notes of the source that are not given here.

Tests used:
[1] = Pharmacokinetics of total radioactivity (TRA) in plasma by liquid scintillation counting; type: in vivo, human; details: for Tmax: single oral 600 mg/150 μCi [14C]IBI351, fasted, median (min, max)
Method: (§1) This was a single-center, single-dose, open-trial study involving six healthy Chinese male subjects. They received a single dose of 600 mg/150 μCi [^14C]IBI351 on day 1 after fasting for at least 10 h. Blood, urine, and fecal samples were collected at specified time points or intervals within 15 days (0–336 h) following the administration of [^14C]IBI351.
(§2) The endpoint of blood analysis was a plasma radioactivity concentration less than 1/8 of the baseline plasma value. Venous blood samples were collected from the six subjects (01101–01106) at the following time points (in hours): −1 (pre-dosing), 0.5, 1, 2, 4, 8, 12, 24, and at 24-h intervals (post-dosing). Whole blood aliquots were collected for radioactivity measurement, and blood samples were centrifuged (1500 [± 10] g, 4 ℃, 10 min) for metabolite identification. All samples were stored at −10–−30 ℃ until analysis.
(§3) Blood, plasma, urine, and fecal samples were analyzed for TRA using the Tri-Carb model 3110 TR liquid scintillation counter (PerkinElmer, Waltham, MA, USA). Blood samples were divided into two parallel portions (0.5 g) and completely burned by OX-501 oxidizer (R.J. Harvey, Tappan, NY, USA). Finally, the samples were analyzed by liquid scintillation counting. Plasma (0.5 g) and urine (1 g) samples were directly analyzed by liquid scintillation counting. Fecal samples were first homogenized with isopropanol/water (50/50, v/v). The excretion of radioactivity in the urine and feces, referring to the cumulative recovery of total radioactive material in each time period, was defined as the sum of the percentage of TRA in the urine and feces relative to the administered dose. The TRA in each sample during a time period and the percentage of TRA related to the administered dose (% of dose) were calculated using the following formula: % of dosage = (TRA detected in the sample/radioactive dosage) × 100%.
(§4) Statistical analysis of TRA in the whole blood and plasma, concentrations of IBI351, corresponding pharmacokinetic parameters, and urine and fecal excretion data was performed using Microsoft Excel 2010. The pharmacokinetic parameters were calculated using Pkanalix 2021R1 (Lixoft, Antony, France). The drug-time curve was plotted using WinNonlin® (version 8.3, Certara). Data were analyzed using the SAS 9.4 software and presented as mean ± standard deviation.

[2] = target: T1, albumin (Homo sapiens, UniProt P02768); assay: Covalent binding analysis of IBI351 in the plasma; type: in vitro ADME
T1 construct: from tissue; host or cells: plasma of healthy human male subjects

[3] = Ratio of total radioactivity in whole blood to plasma; type: in vivo, human; details: Mean±SD, n=6
Method: as §2, §3
The radioactivity in the whole blood and plasma is represented by the TRA ratio between the whole blood and plasma.

[4] = Mass balance: recovery of total radioactivity in urine and feces; type: in vivo, human; details: for Radioactivity excreted in feces / Radioactivity excreted in urine / Total radioactive excretion in urine and feces: 0–312 h, mean±SD, n=6
Method: as §1
Urine and fecal samples were collected for mass balance analysis and metabolite profiling. Urine samples were collected in polyethylene containers during the following time periods (in hours): −24–0 (pre-dosing), 0–4, 4–8, 8–12, 12–24, and at 24-h intervals thereafter (post-dosing) and stored at 4 ℃ during the collection period. Fecal samples were collected during the following periods (in hours): −24–0 (pre-dosing), 0–24, and at 24-h intervals thereafter (post-dosing). The collection of urine and fecal samples was terminated when the TRA in the combined biological samples (urine + feces) from each subject exceeded 90% of the administered dose. Additionally, the radioactivity in samples collected over two consecutive days should be less than 1% of the administered dose. The samples were weighed in special containers and stored at −10 ℃ to −30 ℃ until analysis.
as §3

[5] = Plasma pharmacokinetics of IBI351 parent drug (HPLC-MS/MS) after a single oral dose of [14C]IBI351; type: in vivo, human
Method: as §1, §2
Plasma, urine, and fecal samples were analyzed using high-performance liquid chromatography-tandem mass spectrometry (HPLC-MS/MS; ABSciex, Carlsbad, CA, USA) to determine the concentrations of IBI351. Samples containing stable isotope-labeled GF1927 (C32H27D3ClFN6O4, with a molecular weight of 620.10) as an internal standard were subjected to protein precipitation with acetonitrile and separated on a Waters Xbridge C18 column (3.5 μm, 50 mm × 2.1 mm; Waters, Milford, MA, USA) at 40 ℃. The mobile phase consisted of deionized water (with 0.1% formic acid) and acetonitrile (with 0.1% formic acid), delivered by gradient elution at 0.6 mL/min, and the gradient elution program was 30% phase B in 0–0.29 min, 80% phase B in 0.30–1.80 min, 30% phase B in 1.81–3.00 min. The detection was performed on a Triple Quad 6500+ tandem mass spectrometer in the positive ion electrospray ionization mode. Quantification was conducted by multiple reaction monitoring of the transitions m/z 617.3→358.2 for IBI351 and m/z 622.2→363.1 for internal standard, respectively. The calibration range for IBI351 in human plasma was 5–5000 ng/mL.
as §4

[6] = total plasma radioactivity, single oral 600 mg/150 μCi, n=6, mean±SD
[7] = individual subjects, rows in order 01101–01106, listed as [14C]IBI351
[8] = IBI351 parent drug in plasma, single oral 600 mg/150 μCi, n=6, mean±SD

T1 sequence (P02768 25-609): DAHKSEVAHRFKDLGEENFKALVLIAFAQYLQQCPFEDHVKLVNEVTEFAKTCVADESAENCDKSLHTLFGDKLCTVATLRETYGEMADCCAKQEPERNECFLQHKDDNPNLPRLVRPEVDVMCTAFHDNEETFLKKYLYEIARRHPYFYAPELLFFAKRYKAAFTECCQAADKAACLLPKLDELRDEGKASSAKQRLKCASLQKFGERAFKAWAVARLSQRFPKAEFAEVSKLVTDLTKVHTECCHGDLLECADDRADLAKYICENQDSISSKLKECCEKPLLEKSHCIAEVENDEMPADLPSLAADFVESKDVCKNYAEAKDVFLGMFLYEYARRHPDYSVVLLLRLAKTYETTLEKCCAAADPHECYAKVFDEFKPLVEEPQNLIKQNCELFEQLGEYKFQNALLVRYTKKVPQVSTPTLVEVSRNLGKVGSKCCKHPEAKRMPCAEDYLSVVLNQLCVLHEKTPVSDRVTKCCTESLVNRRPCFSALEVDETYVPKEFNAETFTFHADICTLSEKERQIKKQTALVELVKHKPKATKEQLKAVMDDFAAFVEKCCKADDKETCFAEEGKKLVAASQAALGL

C=CC(=O)N1CCN2c3c(c(=O)n(-c4c(C)ccnc4C(C)C)c4nc(-c5c(O)cccc5F)c(Cl)cc34)N(C)C(=O)C2C1 (stereo not drawn) [IBI351]
quantifiable time point ([1]; TRA in plasma): 456 h | Tmax ([1]; total plasma radioactivity, n=6): 2.00 h and 2.00 (2.00, 4.00) h | Tmax ([1]; total plasma radioactivity, n=6, listed as [^14C]IBI351): 2 h | AUC0–inf [1, 6]: 4.69×10^5±1.10×10^5 h·ng Eq./mL | AUC0–last [1, 6]: 4.33×10^5±1.04×10^5 h·ng Eq./mL | CL/F [1, 6]: 1.32 ± 0.319 L/h | Cmax [1, 6]: 7.26 × 10^3 (± 1.68 × 10^3) ng Eq./mL and 7.26×10^3±1.68×10^3 ng Eq./mL | MRT0–last [1, 6]: 108 ± 4.20 h | T1/2 [1, 6]: 129 (± 21.7) h and 129±21.7 h | Vz/F [1, 6]: 242 ± 50.7 L | T1/2 ([1]; total plasma radioactivity, single oral 600 mg/150 μCi, n=6, mean±SD, listed as [^14C]IBI351): 129 h | covalent binding in the plasma [2]: presence of covalent binding between IBI351 and albumin | Ratio of whole blood to total plasma radioactivity ([3]; 0.50 h post-dose): 0.655±0.0841 | Ratio of whole blood to total plasma radioactivity ([3]; 1.00 h post-dose): 0.716±0.0588 | Ratio of whole blood to total plasma radioactivity ([3]; 4.00 h post-dose): 0.606±0.0323 | Ratio of whole blood to total plasma radioactivity ([3]; 12.0 h post-dose): 0.571±0.0884 | Ratio of whole blood to total plasma radioactivity ([3]; 24.0 h post-dose): 0.626±0.0402 | Ratio of whole blood to total plasma radioactivity ([3]; 48.0 h post-dose): 0.670±0.0320 | Radioactivity excreted in feces [4]: approximately 86.30 % of dose | Radioactivity excreted in urine [4]: 9.27 % of dose | Total radioactive excretion in urine and feces [4]: 95.56 % of dose | Radioactivity excreted in feces ([4]; listed as [14C]IBI351): 86.30±4.90 % of dose | Radioactivity excreted in urine ([4]; listed as [14C]IBI351): 9.27±1.83 % of dose | Total radioactive excretion in urine and feces ([4]; listed as [14C]IBI351): 95.56±3.41 % of dose | Radioactivity excreted in feces ([4]; listed as [^14C]IBI351): 86.30 % of dose | Radioactivity excreted in urine ([4]; listed as [^14C]IBI351): 9.27 % of dose | Total radioactive excretion in urine and feces ([4]; listed as [^14C]IBI351): 95.56 % of dose | Excretion rate ([4]; at 144 h (six days) post-dose): less than 1.00% | Urine and feces recovered radioactivity ([4]; individual subjects, rows in order 01101–01106, 01105 normalized to 100.00%, listed as [14C]IBI351): 92.36 % of dose and 94.47 % of dose and 91.45 % of dose and 96.48 % of dose and 100.00 % of dose and 98.61 % of dose | Feces recovered radioactivity [4, 7]: 80.29 % of dose and 87.83 % of dose and 92.67 % of dose and 89.35 % of dose and 80.67 % of dose and 86.99 % of dose | Urine recovered radioactivity [4, 7]: 11.69 % of dose and 7.48 % of dose and 11.16 % of dose and 8.65 % of dose and 7.33 % of dose and 9.26 % of dose | TRA excreted into the feces ([4]; of the administered dose, from 0 h to 192 h): 86.30% | TRA excreted into the urine and feces ([4]; of the administered dose, period printed as 0–192 h): 95.56% | Total radioactive content excreted in urine and feces within 120 h ([4]; within 120 h (five days) after administration, on average): more than 90.00% | quantifiable time point ([5]; IBI351 parent drug in plasma): 168 h | AUC0–last [5, 8]: 2.65×10^4±5.90×10^3 h·ng Eq./mL | CL/F [5, 8]: 25.6 (± 5.56) L/h and 25.6±5.56 L/h | Cmax [5, 8]: 3.90×10^3±8.02×10^2 ng Eq./mL | Cmax ([5]; IBI351 parent drug in plasma, single oral 600 mg/150 μCi, n=6, mean±SD, listed as IB1351): 3.90 × 10^3 (± 8.02 × 10^2) ng Eq./mL | Cmax ([5]; male, human, oral, 600 mg, IBI351 parent drug in plasma, read-out: mean Cmax): 3900 ng/mL | CL renal ([5]; male, human, plasma, single oral 600 mg/150 μCi, read-out: renal clearance (converted)): 30.3 mL/min | Tmax ([5]; male, human, IBI351 parent drug in plasma, single oral 600 mg/150 μCi, fasted, n=6, median (min, max)): 1 h | half-life ([5]; male, human, IBI351 parent drug in plasma, single oral 600 mg/150 μCi, n=6, mean±SD): 17.4 ± 11.9 h | MRT last ([5]; male, human, IBI351 parent drug in plasma, single oral 600 mg/150 μCi, n=6, mean±SD, read-out: MRT0–last): 8.24 ± 1.1 h | Vd/F ([5]; male, human, IBI351 parent drug in plasma, single oral 600 mg/150 μCi, n=6, mean±SD, read-out: Vz/F): 581 ± 323 L
